Km and IC50 data for 3 molecules are collected here from article PMC12390925, “Metabolomics analysis of SNAT2-deficient cells: Implications for the discovery of selective small-molecule inhibitors of an amino acid transporter” (The Journal of Biological Chemistry, 2025).

Series [1] addresses T1, sodium-coupled neutral amino acid transporter 2 (SNAT2/SLC38A2) (Homo sapiens, UniProt Q96QD8).
T1 construct: dox-inducible sgRNA-resistant human SLC38A2 cDNA in Slc38a2-KO mouse HY15549 cells
T1 sequence (Q96QD8 1-506): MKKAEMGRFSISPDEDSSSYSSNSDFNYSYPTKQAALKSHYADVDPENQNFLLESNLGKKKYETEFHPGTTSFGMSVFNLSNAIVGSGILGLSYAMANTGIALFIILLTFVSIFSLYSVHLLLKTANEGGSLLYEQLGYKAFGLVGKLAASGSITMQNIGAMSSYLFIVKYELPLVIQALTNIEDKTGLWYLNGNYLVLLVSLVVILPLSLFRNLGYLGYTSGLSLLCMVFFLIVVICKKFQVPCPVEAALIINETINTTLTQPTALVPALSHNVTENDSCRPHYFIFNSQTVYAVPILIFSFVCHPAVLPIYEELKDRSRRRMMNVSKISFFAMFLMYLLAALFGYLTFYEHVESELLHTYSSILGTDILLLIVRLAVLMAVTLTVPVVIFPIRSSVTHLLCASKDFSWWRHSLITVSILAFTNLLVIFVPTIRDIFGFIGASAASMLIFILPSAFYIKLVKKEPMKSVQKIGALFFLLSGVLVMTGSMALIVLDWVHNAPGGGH
Nature of the series: GC-MS cell uptake assay, SNAT2-expressing vs SNAT2-KO cells (KM). It is filed as cell-based.

Series [2] has as its target T1, sodium-coupled neutral amino acid transporter 2 (SNAT2/SLC38A2). Nature of the series: inhibition of SNAT2-dependent MeAIB uptake in cells (GC-MS). It counts as cell-based.
Substrate in series [3]: CNC(C)(C)C(=O)O
The series can be described thus: GC-MS cell uptake assay, SNAT1-overexpressing vs empty vector cells (KM). It counts as cell-based, Homo sapiens.

The Km is the concentration of substrate that gives half-maximal velocity. Regarding `CNC(C)(C)C(=O)O` [MeAIB], the Km in series [1] was approximately 300 µM.

The IC50 is the midpoint of a concentration-inhibition curve. A lower IC50 goes with greater potency in that assay. In turn, `C[C@H](N)C(=O)O` [L-alanine] gave an IC50 in series [2] of 1900 µM.

B1: SNAT1 (Homo sapiens) (protein)
chain: MMHFKSGLELTELQNMTVPEDDNISNDSNDFTEVENGQINSKFISDRESRRSLTNSHLEKKKCDEYIPGTTSLGMSVFNLSNAIMGSGILGLAFALANTGILLFLVLLTSVTLLSIYSINLLLICSKETGCMVYEKLGEQVFGTTGKFVIFGATSLQNTGAMLSYLFIVKNELPSAIKFLMGKEETFSAWYVDGRVLVVIVTFGIILPLCLLKNLGYLGYTSGFSLSCMVFFLIVVIYKKFQIPCIVPELNSTISANSTNADTCTPKYVTFNSKTVYALPTIAFAFVCHPSVLPIYSELKDRSQKKMQMVSNISFFAMFVMYFLTAIFGYLTFYDNVQSDLLHKYQSKDDILILTVRLAVIVAVILTVPVLFFTVRSSLFELAKKTKFNLCRHTVVTCILLVVINLLVIFIPSMKDIFGVVGVTSANMLIFILPSSLYLKITDQDGDKGTQRIWAALFLGLGVLFSLVSIPLVIYDWACSSSSDEGH
notes: CMV-driven human SLC38A1 cDNA stably expressed in HY15549 iSNAT2 cells
With B1, the Km in series [3] was determined as 2900 µM.
